Reference: the supplement of paper PMC10307832

What was measured:
Assay in all cases: relative viability (nuclei count vs DMSO), 5 days (fraction); higher = more cells survive
[1] = test system: 201T
Procedure, shortened: (§1)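 Relative viability is defined as nuclei in treated wells over nuclei in vehicle wells. Duplicate plates were run and medians reported. Lung cancer cell lines in 1536-well plates were dosed by pin tool one day after seeding, with one drug or with a fixed anchor-drug dose plus five library-drug doses (not always all listed) in √10 steps, and nuclei were counted after 5 days.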

[2] = test system: BEN
Procedure, shortened: as §1

[3] = test system: EMC-BAC-2
Procedure, shortened: as §1

[4] = test system: HARA
Procedure, shortened: as §1

[5] = test system: HCC-44
Procedure, shortened: as §1

[6] = test system: LCLC-103H
Procedure, shortened: as §1

[7] = test system: LOU-NH91
Procedure, shortened: as §1

[8] = test system: NCI-H1395
Procedure, shortened: as §1

[9] = test system: NCI-H1666
Procedure, shortened: as §1

[10] = test system: NCI-H1993
Procedure, shortened: as §1

[11] = test system: NCI-H2009
Procedure, shortened: as §1

[12] = test system: NCI-H2023
Procedure, shortened: as §1

[13] = test system: NCI-H2087
Procedure, shortened: as §1

[14] = test system: NCI-H2126
Procedure, shortened: as §1

[15] = test system: NCI-H2347
Procedure, shortened: as §1

[16] = test system: NCI-H23
Procedure, shortened: as §1

[17] = test system: NCI-H3122
Procedure, shortened: as §1

[18] = test system: NCI-H441
Procedure, shortened: as §1

[19] = test system: NCI-H596
Procedure, shortened: as §1

[20] = test system: NCI-H647
Procedure, shortened: as §1

[21] = test system: NCI-H650
Procedure, shortened: as §1

[22] = test system: NCI-H727
Procedure, shortened: as §1

[23] = test system: NCI-H838
Procedure, shortened: as §1

## C=C1C(=O)O[C@@H](CCCCCCCC)[C@@H]1C(=O)O [C-75] + N=C(N)NC(=N)NCCc1ccccc1 [Phenformin] (partner 250 µM)
[1]; first compound 0.08 µM
  relative viability: 0.42
[1]; first compound 0.253 µM
  relative viability: 0.484
[1]; first compound 0.8 µM
  relative viability: 0.425
[1]; first compound 2.53 µM
  relative viability: 0.43
[1]; first compound 8 µM
  relative viability: 0.459
[2]; first compound 0.08 µM
  relative viability: 0.266
[2]; first compound 0.253 µM
  relative viability: 0.274
[2]; first compound 0.8 µM
  relative viability: 0.297
[2]; first compound 8 µM
  relative viability: 0.258
[3]; first compound 0.08 µM
  relative viability: 0.58
[3]; first compound 0.253 µM
  relative viability: 0.478
[3]; first compound 0.8 µM
  relative viability: 0.48
[3]; first compound 2.53 µM
  relative viability: 0.42
[3]; first compound 8 µM
  relative viability: 0.448
[4]; first compound 0.08 µM
  relative viability: 0.46
[4]; first compound 0.253 µM
  relative viability: 0.487
[4]; first compound 0.8 µM
  relative viability: 0.342
[4]; first compound 2.53 µM
  relative viability: 0.306
[4]; first compound 8 µM
  relative viability: 0.434
[5]; first compound 0.08 µM
  relative viability: 0.294
[5]; first compound 0.253 µM
  relative viability: 0.185
[5]; first compound 0.8 µM
  relative viability: 0.176
[5]; first compound 2.53 µM
  relative viability: 0.157
[5]; first compound 8 µM
  relative viability: 0.142
[6]; first compound 0.08 µM
  relative viability: 0.325
[6]; first compound 0.253 µM
  relative viability: 0.35
[6]; first compound 0.8 µM
  relative viability: 0.311
[6]; first compound 2.53 µM
  relative viability: 0.253
[6]; first compound 8 µM
  relative viability: 0.389
[7]; first compound 0.08 µM
  relative viability: 0.715
[7]; first compound 0.253 µM
  relative viability: 0.741
[7]; first compound 0.8 µM
  relative viability: 0.612
[7]; first compound 2.53 µM
  relative viability: 0.532
[7]; first compound 8 µM
  relative viability: 0.749
[8]; first compound 0.08 µM
  relative viability: 0.452
[8]; first compound 0.253 µM
  relative viability: 0.454
[8]; first compound 0.8 µM
  relative viability: 0.435
[8]; first compound 2.53 µM
  relative viability: 0.45
[8]; first compound 8 µM
  relative viability: 0.514
[9]; first compound 0.08 µM
  relative viability: 0.586
[9]; first compound 0.253 µM
  relative viability: 0.602
[9]; first compound 0.8 µM
  relative viability: 0.56
[9]; first compound 2.53 µM
  relative viability: 0.559
[9]; first compound 8 µM
  relative viability: 0.51
[10]; first compound 0.08 µM
  relative viability: 0.528
[10]; first compound 0.253 µM
  relative viability: 0.574
[10]; first compound 0.8 µM
  relative viability: 0.476
[10]; first compound 2.53 µM
  relative viability: 0.46
[10]; first compound 8 µM
  relative viability: 0.506
[11]; first compound 0.08 µM
  relative viability: 0.487
[11]; first compound 0.253 µM
  relative viability: 0.534
[11]; first compound 0.8 µM
  relative viability: 0.448
[11]; first compound 2.53 µM
  relative viability: 0.427
[11]; first compound 8 µM
  relative viability: 0.422
[12]; first compound 0.08 µM
  relative viability: 0.394
[12]; first compound 0.253 µM
  relative viability: 0.502
[12]; first compound 0.8 µM
  relative viability: 0.367
[12]; first compound 2.53 µM
  relative viability: 0.384
[12]; first compound 8 µM
  relative viability: 0.372
[13]; first compound 0.08 µM
  relative viability: 0.409
[13]; first compound 0.253 µM
  relative viability: 0.597
[13]; first compound 0.8 µM
  relative viability: 0.428
[13]; first compound 2.53 µM
  relative viability: 0.279
[13]; first compound 8 µM
  relative viability: 0.48
[14]; first compound 0.08 µM
  relative viability: 0.505
[14]; first compound 0.253 µM
  relative viability: 0.558
[14]; first compound 0.8 µM
  relative viability: 0.501
[14]; first compound 2.53 µM
  relative viability: 0.48
[14]; first compound 8 µM
  relative viability: 0.515
[15]; first compound 0.08 µM
  relative viability: 0.506
[15]; first compound 0.253 µM
  relative viability: 0.599
[15]; first compound 0.8 µM
  relative viability: 0.401
[15]; first compound 8 µM
  relative viability: 0.379
[16]; first compound 0.08 µM
  relative viability: 0.775
[16]; first compound 0.253 µM
  relative viability: 0.758
[16]; first compound 0.8 µM
  relative viability: 0.773
[16]; first compound 2.53 µM
  relative viability: 0.582
[16]; first compound 8 µM
  relative viability: 0.643
[17]; first compound 0.08 µM
  relative viability: 0.405
[17]; first compound 0.253 µM
  relative viability: 0.406
[17]; first compound 0.8 µM
  relative viability: 0.384
[17]; first compound 8 µM
  relative viability: 0.408
[18]; first compound 0.08 µM
  relative viability: 0.784
[18]; first compound 0.253 µM
  relative viability: 0.725
[18]; first compound 0.8 µM
  relative viability: 0.784
[18]; first compound 2.53 µM
  relative viability: 0.672
[18]; first compound 8 µM
  relative viability: 0.787
[19]; first compound 0.08 µM
  relative viability: 0.891
[19]; first compound 0.253 µM
  relative viability: 0.766
[19]; first compound 0.8 µM
  relative viability: 0.846
[19]; first compound 2.53 µM
  relative viability: 0.513
[19]; first compound 8 µM
  relative viability: 0.717
[20]; first compound 0.08 µM
  relative viability: 0.52
[20]; first compound 0.253 µM
  relative viability: 0.58
[20]; first compound 0.8 µM
  relative viability: 0.417
[20]; first compound 2.53 µM
  relative viability: 0.374
[20]; first compound 8 µM
  relative viability: 0.382
[21]; first compound 0.08 µM
  relative viability: 0.474
[21]; first compound 0.253 µM
  relative viability: 0.409
[21]; first compound 0.8 µM
  relative viability: 0.371
[21]; first compound 2.53 µM
  relative viability: 0.4
[21]; first compound 8 µM
  relative viability: 0.41
[22]; first compound 0.08 µM
  relative viability: 0.62
[22]; first compound 0.253 µM
  relative viability: 0.879
[22]; first compound 0.8 µM
  relative viability: 0.537
[22]; first compound 8 µM
  relative viability: 0.65
[23]; first compound 0.08 µM
  relative viability: 0.572
[23]; first compound 0.8 µM
  relative viability: 0.515
[23]; first compound 2.53 µM
  relative viability: 0.453
[23]; first compound 8 µM
  relative viability: 0.49
